Measured values reported in patent US20040005537A1, “Method of identifying toxic agents using differential gene expression” (priority 2000, published 2004).

What was measured:
rat heart tissue = assay: GENECALLING differential gene expression analysis after dosing of serotonin modulating agents; format: in vivo, Sprague Dawley rats
Protocol: Control animals received sterile water or canola oil. The animals were sacrificed 24 hours following the last dose. Liver tissue was dissected from the animals, and total RNA was recovered from the dissected tissue. cDNA was prepared and the resulting samples were processed through using GENECALLING™ differential expression analysis as described in U.S. Pat. No. 5,871,697 and in Shimkets et al., Nature Biotechnology 17:798-803 (1999). The contents of these patents and publications are incorporated herein by reference in their entirety.
Thousands of gene fragments were initially found to be differentially expressed in rat heart tissue in response to serotonin modulating agents in. Genes fragments whose expression levels were modulated greater than ±1.5-fold were selected for further analysis.
Column 6 of Table 1, entitled “Function”, lists the type of classification assigned for the protein, based on its function. The 210 single nucleic acid sequences identified herein, are referred to herein as CARDIOTOX 1-210.

[1] = cited from earlier work

For `CCN[C@@H](C)Cc1cccc(C(F)(F)F)c1` [dexfenfluramine], the “Effects on Transcription Level: Novel gene fragment, 445 bp, 85% SI to human skeletal muscle alpha 2 actinin [M86406]” value (rat heart tissue; CARDIOTOX 72) was −1.7 fold, the “Effects on Transcription Level: Novel gene fragment, 246 bp, 89% SI to mouse ponsin-1 [AF078667]” value (rat heart tissue; CARDIOTOX 73) was −3.1 fold and the “Effects on Transcription Level: Novel gene fragment, 126 bp, 77% SI to human DNA sequence from cosmid V311G7, between markers DXS366 and DXS87 on chromosome X [Z69304]” value (rat heart tissue; CARDIOTOX 74) was “+2.0 fold”. For the same compound, the “Effects on Transcription Level: Novel gene fragment, 370 bp” value (rat heart tissue; CARDIOTOX 75) was −2.6 fold, the “Effects on Transcription Level: Novel gene fragment, 337 bp, 78% SI to novel human protein AHNAK [M80899]” value (rat heart tissue; CARDIOTOX 76) was −4.2 fold and the “Effects on Transcription Level: Novel gene fragment, 100 bp, 93% SI to human KIAA0750 protein [ABO18293]” value (rat heart tissue; CARDIOTOX 77) was −7.5 fold. For the same compound, the “Effects on Transcription Level: Novel gene fragment, 44 bp” value (rat heart tissue; CARDIOTOX 78) was −6.5 fold, the “Effects on Transcription Level: Novel gene fragment, 698 bp, 93% SI to mouse plenty-of-prolines-101 [AF062655]” value (rat heart tissue; CARDIOTOX 79) was −2.3 fold and the “Effects on Transcription Level: Novel gene fragment, 660 bp, 84% SI to mouse membrane protein TMS-2 [AF181685]” value (rat heart tissue; CARDIOTOX 80) was −3.6 fold. For the same compound, the “Effects on Transcription Level: Novel gene fragment, 115 bp” value (rat heart tissue; CARDIOTOX 81) was −4.0 fold, the “Effects on Transcription Level: Novel gene fragment, 294 bp, 95% SI to mouse Ndr1 related protein Ndr2 [AB033921]” value (rat heart tissue; CARDIOTOX 82) was −2.0 fold and the “Effects on Transcription Level: Novel gene fragment, 198 bp” value (rat heart tissue; CARDIOTOX 83) was “+2.5 fold”. For the same compound, the “Effects on Transcription Level: Novel gene fragment, 730 bp, 86% SI to mouse E800 [Y10968]” value (rat heart tissue; CARDIOTOX 84) was −2.0 fold, the “Effects on Transcription Level: Novel gene fragment, 294 bp, 98% SI to cysteine conjugate beta-lyase [S61960]” value (rat heart tissue; CARDIOTOX 85) was −2.0 fold and the “Effects on Transcription Level: Aconitase” value (rat heart tissue; CARDIOTOX 86, GenBank A1243266) was −3.1 fold. For the same compound, the “Effects on Transcription Level: Ribosomal protein L7” value (rat heart tissue; CARDIOTOX 87, GenBank M17422) was “+2.5 fold”, the “Effects on Transcription Level: Ribosomal protein L9” value (rat heart tissue; CARDIOTOX 88, GenBank X51706) was “+10.0 fold” and the “Effects on Transcription Level: Ribosomal protein L12” value (rat heart tissue; CARDIOTOX 89, GenBank X53504) was −2.2 fold. For the same compound, the “Effects on Transcription Level: 18S, 5.8S, and 28S ribosomal RNA's” value (rat heart tissue; CARDIOTOX 90, GenBank V01270) was “+5 fold”, the “Effects on Transcription Level: Pyruvate dehydrogenase kinase 2 (PDK2)” value (rat heart tissue; CARDIOTOX 91, GenBank U10357) was −6.9 fold and the “Effects on Transcription Level: D-Binding Protein (DBP)” value (rat heart tissue; CARDIOTOX 92, GenBank J03179) was −1.9 fold. For the same compound, the “Effects on Transcription Level: Lipoprotein lipase” value (rat heart tissue; CARDIOTOX 93, GenBank L03294) was −2.2 fold, the “Effects on Transcription Level: Non-neuronal enolase” value (rat heart tissue; CARDIOTOX 94, GenBank X02610) was “+3.5 fold” and the “Effects on Transcription Level: Glycogen phosphorylase (muscle isozyme)” value (rat heart tissue; CARDIOTOX 95, GenBank L10669) was −2.0 fold. The “Effects on Transcription Level: Cytochrome c oxidase subunit IV” value (rat heart tissue; CARDIOTOX 96, GenBank X14209) was “+10.0 fold”, the “Effects on Transcription Level: Alpha-globin” value (rat heart tissue; CARDIOTOX 97, GenBank M17083) was “+3.0 fold” and the “Effects on Transcription Level: Beta-globin” value (rat heart tissue; CARDIOTOX 98, GenBank X06701) was “+3.1 fold”. For the same compound, the “Effects on Transcription Level: Myoglobin” value (rat heart tissue; CARDIOTOX 99, GenBank AF197916) was “+4.7 fold”, the “Effects on Transcription Level: Titin” value (rat heart tissue; CARDIOTOX 100, GenBank L38717) was −2.0 fold and the “Effects on Transcription Level: Skeletal muscle actin” value (rat heart tissue; CARDIOTOX 101, GenBank V01218) was −18.2 fold. For the same compound, the “Effects on Transcription Level: Myosin light chain 2 (MLC2)” value (rat heart tissue; CARDIOTOX 102, GenBank M11851) was “+2.6 fold”, the “Effects on Transcription Level: Alpha cardiac myosin heavy chain” value (rat heart tissue; CARDIOTOX 103, GenBank X15938) was −3.4 fold and the “Effects on Transcription Level: Troponin I” value (rat heart tissue; CARDIOTOX 104, GenBank U77354) was “+1.8 fold”. The “Effects on Transcription Level: Cardiac calsequestrin” value (rat heart tissue; CARDIOTOX 105, GenBank AF001334) was −2.9 fold, the “Effects on Transcription Level: Sulfated glycoprotein 2” value (rat heart tissue; CARDIOTOX 106, GenBank M16975) was −1.8 fold and the “Effects on Transcription Level: Aquaporin 7” value (rat heart tissue; CARDIOTOX 107, GenBank AB000507) was “+1.5 fold”. For the same compound, the “Effects on Transcription Level: Carnitine/acylcarnitine carrier protein” value (rat heart tissue; CARDIOTOX 108, GenBank X97831) was −2.5 fold, the “Effects on Transcription Level: Glu-Pro Dipeptide Repeat” value (rat heart tissue; CARDIOTOX 109, GenBank U40628) was −5.0 fold and the “Effects on Transcription Level: Cystatin beta” value (rat heart tissue; CARDIOTOX 110, GenBank X54737) was “+2.5 fold”. For the same compound, the “Effects on Transcription Level: Novel gene fragment, 593 bp, 90% SI to human calcineurin B-like protein [Z08983]” value (rat heart tissue; CARDIOTOX 111) was “+1.9 fold”, the “Effects on Transcription Level: Novel gene fragment, 179 bp, 88% SI to human titin [X90568]” value (rat heart tissue; CARDIOTOX 112) was −3.1 fold and the “Effects on Transcription Level: Novel gene fragment, 700 bp, 91% SI to mouse periplakin (PPL) [AF116523]” value (rat heart tissue; CARDIOTOX 113) was “+2.5 fold”. For the same compound, the “Effects on Transcription Level: Long chain acyl-CoA dehydrogenase (LCAD)” value (rat heart tissue; CARDIOTOX 114, GenBank J05029) was “+1.7 fold”, the “Effects on Transcription Level: Sulfated glycoprotein 1 (SGP-1)” value (rat heart tissue; CARDIOTOX 115, GenBank M19936) was −1.7 fold and the “Effects on Transcription Level: Catalase” value (rat heart tissue; CARDIOTOX 116, GenBank M11670) was “+2.1 fold”. The “Effects on Transcription Level: Alpha-fodrin (A2A) (Nonerythroid spectrin alpha subunit)” value (rat heart tissue; CARDIOTOX 117, GenBank AF084186) was −1.7 fold, the “Effects on Transcription Level: Cardiac specific sodium channel alpha-subunit” value (rat heart tissue; CARDIOTOX 118, GenBank M27902) was −2.0 fold and the “Effects on Transcription Level: Glu-Pro Dipeptide Repeat” value (rat heart tissue; CARDIOTOX 119, GenBank U40628) was “+4.6 fold”. The “Effects on Transcription Level: Novel gene fragment, 200 bp, 64% SI to human KIAA0733 protein [AB018316]” value (rat heart tissue; CARDIOTOX 120) was −1.6 fold, the “Effects on Transcription Level: RNA polymerase II transcription factor SIII (p18 subunit)” value (rat heart tissue; CARDIOTOX 121, GenBank L42855) was “+2.0 fold” and the “Effects on Transcription Level: Protein-tyrosine phosphalase (LRP)” value (rat heart tissue; CARDIOTOX 122, GenBank L01702) was “+1.7 fold”. The “Effects on Transcription Level: Skeletal muscle selenoprotein W (SelW)” value (rat heart tissue; CARDIOTOX 123, GenBank U25264) was −1.6 fold, the “Effects on Transcription Level: Sarcoplasmic reticulum 2+-Ca-ATPase” value (rat heart tissue; CARDIOTOX 124, GenBank X15635) was −2.0 fold and the “Effects on Transcription Level: Ribosomal protein S7” value (rat heart tissue; CARDIOTOX 125, GenBank X53377) was “+1.7 fold”. For the same compound, the “Effects on Transcription Level: Ribophorin I” value (rat heart tissue; CARDIOTOX 126, GenBank X05300) was “+2.0 fold”, the “Effects on Transcription Level: Beta cardiac myosin heavy chain” value (rat heart tissue; CARDIOTOX 127, GenBank X15939) was “+2.4 fold” and the “Effects on Transcription Level: ADP-ribosylation factor 1” value (rat heart tissue; CARDIOTOX 128, GenBank L12380) was “+1.1 fold”. The “Effects on Transcription Level: Laminin receptor” value (rat heart tissue; CARDIOTOX 129, GenBank U04942) was “+2.6 fold”, the “Effects on Transcription Level: Novel gene fragment, 206 bp, 89% SI to human seryl-tRNA synthetase [X91257]” value (rat heart tissue; CARDIOTOX 130) was “+1.8 fold” and the “Effects on Transcription Level: Annexin VI” value (rat heart tissue; CARDIOTOX 131, GenBank X86086) was −10.0 fold. For the same compound, the “Effects on Transcription Level: Novel gene fragment, 325 bp, 90% SI to mouse N-RAP [U76618]” value (rat heart tissue; CARDIOTOX 132) was “+1.7 fold”, the “Effects on Transcription Level: Novel gene fragment, 61 bp (CARDIOTOX 134)” value (rat heart tissue; LD10 dose for three days) was −1.8 fold and the “Effects on Transcription Level: Novel gene fragment, 337 bp (CARDIOTOX 133)” value (rat heart tissue; LD10 dose for three days) was −2.0 fold. For the same compound, the “Effects on Transcription Level: Novel gene fragment, 378 bp, 88% SI to human coatomer protein (COPA) [U24105] (CARDIOTOX 138)” value (rat heart tissue; LD10 dose for three days) was −2.0 fold, the “Effects on Transcription Level: Long chain 3-ketoacyl-CoA thiolase (CARDIOTOX 136)” value (rat heart tissue; LD10 dose for three days, GenBank D16479) was −1.5 fold and the “Effects on Transcription Level: TATA-binding protein interacting protein 120 (TIP120) (CARDIOTOX 135)” value (rat heart tissue; LD10 dose for three days, GenBank D87671) was “+2.3 fold”. The “Effects on Transcription Level: Serine protease (CARDIOTOX 139)” value (rat heart tissue; LD10 dose for three days, GenBank D88250) was “+1.6 fold”, the “Effects on Transcription Level: Thymosin beta-4 (CARDIOTOX 137)” value (rat heart tissue; LD10 dose for three days, GenBank M34043) was “+1.4 fold” and the “Effects on Transcription Level: Annexin VI (no CARDIOTOX assignment given)” value (rat heart tissue; LD10 dose for three days, GenBank X86086) was −5.1 fold. For the same compound, the “classification as cardiotoxic or noncardiotoxic serotonin modulating agent” value ([1]; grouping used to generate the distinguishing gene profiles) was “cardiotoxic” and the “side effect reported in a subset of patients” value ([1]; patients to which they are administered) was “valvular heart disease”.
